Reference: PMC2559818 (BMC Clinical Pharmacology, 2008)
Values joined by “and” are separate entries in the source; they are usually repeats but may differ in a detail not shown here. Equal values may be shown once.

Key:
[1] = system: calf thymus DNA; test: Assessment of DNA binding activity of Pt in pUF (ex vivo incubation); conditions: for DNA binding of Pt in patient pUF samples: pUF of two treated patients per drug; for DNA binding of Pt in patient pUF samples / Added Pt bound to DNA: five-day incubation with calf thymus DNA; for Added Pt bound to DNA: parent compound added to pUF of healthy volunteers; for Total binding capacity of equivalent concentrations of parent compound recovered (average): patient pUF, more than 8 months after end of treatment
Protocol: The latter was done to assess the binding capacity of the parent compounds at concentrations in the same range as the patients samples. After a five-day incubation to achieve a maximal Pt-DNA binding, the DNA was precipitated, washed and dissolved in water as described by Brouwers et al. After hydrolysis, the Pt-DNA binding was assessed.

[2] = system: plasma proteins; test: Ex vivo activity of STS (release of Pt from plasma proteins); format: in vitro ADME, human; conditions: for Percentage of plasma Pt recovered in pUF after STS incubation: 750 μL plasma + 25 μL 250 g/L STS
Protocol: Therefore, 750 μL of plasma were incubated with 25 μL of a 250 g/L STS solution. As control, 750 μL of plasma were incubated with 25 μL of water. After incubation, pUF was prepared and Pt concentrations of the STS incubated samples and control samples were compared. Protein concentrations in the ultrafiltrates were analysed using a 2-D Quant Kit (GE healthcare Bio-Sciences AB, Uppsala, Sweden).

[3] = Renal function (MDRD GFR) at chemotherapy and at follow-up; format: in vivo, human
Protocol: Differences between Pt levels of cisplatin and oxaliplatin treated patients, control cancer patients, and healthy controls were evaluated using the Mann-Whitney U test. The Wilcoxon signed rank test was used to test the difference between the renal function at the time of chemotherapy and at follow-up. Correlations between plasma and pUF level of Pt treated patients were evaluated by the Pearson correlation coefficient. SPSS was used to perform these tests.
Pt levels were proportional to the cumulative dose. […] An association between GSTT1,GSTM1, and GSTP1 genotypes and Pt levels could not be established. The effect of the renal function on Pt levels was evaluated using the glomerular filtration rate (GFR) which was calculated with the 'Modification of Diet in Renal Disease (MDRD)'-formula [21]. […] Figure 3 and 4 show the MDRD GFR for patients at the start of their chemotherapy treatment and at follow-up. […] Long-term plasma Pt concentrations were lower when the GFR at the time of chemotherapy was higher.

[4] = Effects of determinants on in vivo plasma Pt levels (NONMEM modelling)
Protocol: Additionally, serum creatinine was assessed at the time of study.
Possible relationships between determinants and Pt levels were evaluated using non-linear mixed effects modeling using NONMEM software (Version V1) (GloboMax LLC, Ellicott city, MD, USA). The first order conditional estimation method was used throughout. It was assumed that, due to the long follow-up, the treatment period was negligible compared to the follow-up time. The significance of established relationships was assessed using the likelihood ratio test.

[5] = Long-term Pt levels in plasma of treated patients (ICP-MS); format: in vivo; conditions: patients treated 8 to 75 months before
Protocol: Whole blood samples for Pt analysis were collected in 10 mL EDTA containing tubes (Becton Dickinson Vacutainer Systems, Plymouth, UK). EDTA was preferred above heparin because the fraction peripheral blood mononuclear cells (PBMCs) could be isolated easier from EDTA plasma. […] Plasma was obtained by centrifuging the whole blood samples for 15 min (1,000 g, 4°C). The fraction containing PBMCs was isolated from the whole blood sample using the method described by Pluim et al [13]. PUF was obtained by centrifuging the plasma fraction through 3 and 30 kDa cut-off ultrafiltrate filter (Centriplus Millipore Corporation, Bedford, MA, USA) for 30 min (1,000 g, 20°C). […] All samples were stored at -20°C until analysis.
Pt analyses were performed using an ICP-MS and a validated method described previously [15]. Pt levels were assessed in plasma, pUF, and bound to DNA in PBMCs. DNA was isolated from PBMCs using a method described by Pluim et al [13]. Before ICP-MS analysis, the DNA was hydrolysed in 1% (v/v) HNO3 solution at 70°C. The limit of quantification (LLOQ) of the method was 20 ng/L for plasma, 7.5 ng/L for pUF, and the absolute sensitivity for Pt bound to DNA was 0.75 pg Pt (7.5 fg Pt per μg DNA when using 100 μg DNA). The LLOQs were determined on the basis of five times the noise in blank matrix solutions.

[6] = system: plasma proteins; test: Ex vivo assessment of protein binding capacity of Pt in pUF (plasma storage); format: in vitro ADME, human
Protocol: Pt concentrations analysed in pUF prepared after storage were compared to Pt concentrations analysed in pUF which was prepared immediately after blood sampling. Additionally, plasma samples were reanalyzed to assess whether or not Pt concentrations in plasma were reduced during storage due to adsorption to the tubes.

[7] = Long-term Pt levels in plasma ultrafiltrate (pUF) of treated patients (ICP-MS); format: in vivo, human; conditions: pUF prepared after sampling
Protocol: Whole blood samples for Pt analysis were collected in 10 mL EDTA containing tubes (Becton Dickinson Vacutainer Systems, Plymouth, UK). […] Plasma was obtained by centrifuging the whole blood samples for 15 min (1,000 g, 4°C). […] PUF was obtained by centrifuging the plasma fraction through 3 and 30 kDa cut-off ultrafiltrate filter (Centriplus Millipore Corporation, Bedford, MA, USA) for 30 min (1,000 g, 20°C). […] All samples were stored at -20°C until analysis.
Pt analyses were performed using an ICP-MS and a validated method described previously [15]. Pt levels were assessed in plasma, pUF, and bound to DNA in PBMCs.

[8] = individual patient plasma samples
[9] = two-compartment model, per compound
[10] = plasma stored at -30°C for 144-278 days

Compound	DNA binding of Pt in patient pUF samples [1]	Added Pt bound to DNA [1] [%]	Total binding capacity of equivalent concentrations of parent compound recovered (average) [1] [%]	Factor increase of Pt in pUF after STS incubation [2, 8]	Percentage of plasma Pt recovered in pUF after STS incubation [2, 8]	GFR at the time of the current study (follow-up) ([3]; in vivo) [mL/min/1.73 m^2]	Median GFR before start of the Pt chemotherapy ([3]; in vivo) [mL/min/1.73 m^2]	First elimination half-life (t1/2) of plasma Pt [4, 9] [months]	Second elimination half-life (t1/2) of plasma Pt [4, 9] [months]	Plasma Pt levels relative to mean level of unexposed controls [5] [fold]	Percentage of plasma Pt recovered in pUF after storage ([6]; individual patient samples, 144-278 days of storage at -30°C)	Percentage of plasma Pt recovered in pUF before storage ([6]; individual patient samples, pUF prepared immediately after blood sampling)	Decrease in Pt concentrations in pUF after storage (average) [6, 10] [%]	Plasma Pt concentrations over storage time [6, 10]	Percentage of plasma Pt recovered in pUF ([2]; individual patient plasma samples, control incubation with water)	Increase in Pt pUF concentrations in samples prepared from STS treated plasma ([2]; over four samples per drug) [fold]	Percentage of plasma Pt recovered in pUF (average) [7] [%]	GFR at the time of the current study (follow-up) ([3]; MDRD formula) [mL/min/1.73 m^2]	Median GFR before start of the Pt chemotherapy ([3]; MDRD formula) [mL/min/1.73 m^2]	Reduction in long-term plasma Pt levels ([4]; STS co-administration with intra-arterial cisplatin, p < 0.001) [%]
N.N.[Cl][Pt][Cl] [Cisplatin, cisplatin]	1.8% and 2.4%	21	10	1.4-fold and 2.7-fold and 2.3-fold and 2.9-fold	17.5 and 34.9 and 30.7 and 36.6	55	78	–	–	–	–	–	–	–	–	–	–	–	–	–
O=C1[O][Pt]2([NH][C@@H]3CCCC[C@H]3[NH]2)[O]C1=O [Oxaliplatin, oxaliplatin]	0.78% and 1.1%	21	4.3	1.5-fold and 1.4-fold and 2.0-fold	40.4 and 46.2 and 39.5 and 38.7	–	–	1.37	535	> 30	25.2 and 21.2 and 16 and 15.8	28.2 and 27.8 and 25.9 and 22.9	26	remained constant over time	27.2 and 32.2 and 20 and 26.5	1.6	24.2	61	65	–
O=S([O-])([O-])=S.[Na+].[Na+] [STS, sodium thiosulfate]	–	–	–	–	–	–	–	–	–	–	–	–	–	–	–	–	–	–	–	71
